Results reported in ChEMBL document CHEMBL1201862, “PubChem BioAssay data set” (2004).
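Cells were grown in 96-well plates and exposed to each compound for 48 hours at five concentrations; endpoints were interpolated linearly between bracketing concentrations, or set to the highest concentration if not reached. GI50 marks 50% less growth.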 Calls of active or inactive are those of the source. Rule as the data show it: active = GI50 up to about 1.1 µM and inactive = higher.

Assays:
Test in all cases: NCI tumour cell line growth inhibition, 48 h
Hs-578T = system: Hs-578T
OVCAR-5 = system: OVCAR-5
SNB-78 = system: SNB-78
MDA-N = system: MDA-N
Malme-3M = system: Malme-3M
SF-295 = system: SF-295
NCI-H522 = system: NCI-H522
SF-268 = system: SF-268
EKVX = system: EKVX
KM12 = system: KM12
DMS-114 = system: DMS-114
LOX IMVI = system: LOX IMVI
UACC-257 = system: UACC-257
TK-10 = system: TK-10
NCI/ADR-RES = system: NCI/ADR-RES
OVCAR-3 = system: OVCAR-3
HCC 2998 = system: HCC 2998
HT-29 = system: HT-29
SN12C = system: SN12C
HL-60 = system: HL-60

Measured: GI50

CC(C)(C)C1CCC2(CC1)CCN(CCCN1CCOCC1)CC2
inactive: Hs-578T 35 µM | OVCAR-5 > 60 µM | SNB-78 38.5 µM | MDA-N 28.8 µM | Malme-3M 18.5 µM | SF-295 > 47.1 µM | NCI-H522 > 51.1 µM | SF-268 > 83 µM | EKVX > 96.4 µM | KM12 > 56 µM | DMS-114 16.5 µM | LOX IMVI 18.9 µM | UACC-257 11.9 µM | TK-10 > 100 µM | NCI/ADR-RES > 100 µM | OVCAR-3 > 100 µM | HCC 2998 16.9 µM | HT-29 6.5 µM | SN12C > 86.3 µM | HL-60 13.1 µM

Cc1c(C(=O)Nc2ccc(Cl)c(C(F)(F)F)c2)oc2cc(O)ccc2/c1=N\NC(N)=S
inactive: OVCAR-5 > 100 µM | SNB-78 > 100 µM | Malme-3M > 100 µM | SF-295 > 100 µM | NCI-H522 > 100 µM | SF-268 > 100 µM | EKVX > 100 µM | KM12 > 100 µM | DMS-114 > 100 µM | LOX IMVI > 100 µM | UACC-257 > 100 µM | TK-10 > 100 µM | OVCAR-3 > 100 µM | HCC 2998 > 100 µM | HT-29 > 100 µM | SN12C > 100 µM | HL-60 > 100 µM
